Data on nine compounds can be found in ChEMBL document CHEMBL5370547, “NSD3: Advances in cancer therapeutic potential and inhibitors research” (Eur J Med Chem, 2023).

The target of assay [1] is T1, Histone-lysine N-methyltransferase NSD3 (Homo sapiens, UniProt Q9BZ95).
T1 sequence (Q9BZ95 whole entry): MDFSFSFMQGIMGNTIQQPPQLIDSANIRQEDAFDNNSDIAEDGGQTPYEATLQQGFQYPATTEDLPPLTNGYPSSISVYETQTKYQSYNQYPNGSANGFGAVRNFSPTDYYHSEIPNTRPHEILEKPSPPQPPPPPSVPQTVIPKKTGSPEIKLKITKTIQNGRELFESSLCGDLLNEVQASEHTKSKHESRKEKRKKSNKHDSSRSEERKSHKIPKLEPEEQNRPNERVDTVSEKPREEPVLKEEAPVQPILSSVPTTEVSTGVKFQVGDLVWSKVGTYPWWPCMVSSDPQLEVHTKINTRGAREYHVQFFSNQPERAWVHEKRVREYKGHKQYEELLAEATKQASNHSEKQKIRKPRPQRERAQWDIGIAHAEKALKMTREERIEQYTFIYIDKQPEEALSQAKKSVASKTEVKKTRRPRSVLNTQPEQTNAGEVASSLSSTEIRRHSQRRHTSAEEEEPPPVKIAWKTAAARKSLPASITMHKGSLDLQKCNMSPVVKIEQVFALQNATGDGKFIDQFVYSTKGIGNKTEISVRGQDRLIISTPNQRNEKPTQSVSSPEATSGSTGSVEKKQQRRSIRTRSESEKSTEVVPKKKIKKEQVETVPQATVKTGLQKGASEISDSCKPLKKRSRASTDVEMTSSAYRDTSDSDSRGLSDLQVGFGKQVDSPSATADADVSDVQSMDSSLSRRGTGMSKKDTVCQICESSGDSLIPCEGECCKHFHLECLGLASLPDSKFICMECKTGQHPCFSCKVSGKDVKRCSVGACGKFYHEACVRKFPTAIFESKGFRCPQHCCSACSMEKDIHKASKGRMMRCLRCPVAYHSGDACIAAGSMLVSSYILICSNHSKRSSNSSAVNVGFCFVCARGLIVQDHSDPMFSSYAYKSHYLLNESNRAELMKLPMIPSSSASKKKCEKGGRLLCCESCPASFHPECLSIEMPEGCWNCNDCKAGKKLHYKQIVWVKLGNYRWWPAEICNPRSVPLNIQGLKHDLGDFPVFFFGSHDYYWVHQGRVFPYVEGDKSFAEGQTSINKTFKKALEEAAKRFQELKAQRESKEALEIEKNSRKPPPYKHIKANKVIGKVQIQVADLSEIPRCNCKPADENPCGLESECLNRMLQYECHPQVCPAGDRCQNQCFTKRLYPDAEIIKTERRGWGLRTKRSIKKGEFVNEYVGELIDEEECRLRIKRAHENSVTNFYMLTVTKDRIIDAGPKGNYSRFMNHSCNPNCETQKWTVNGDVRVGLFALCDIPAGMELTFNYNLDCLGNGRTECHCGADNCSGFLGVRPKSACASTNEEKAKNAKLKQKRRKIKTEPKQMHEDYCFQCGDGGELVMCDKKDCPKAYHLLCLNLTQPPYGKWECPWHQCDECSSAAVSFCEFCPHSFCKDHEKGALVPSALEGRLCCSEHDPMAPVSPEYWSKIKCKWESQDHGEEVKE
The assay is described as follows: Inhibition of N-terminal GST-fused recombinant human NSD3 (1021 to 1322 residues) expressed in Escherichia coli using SAM as substrate preincubated for 20 mins followed by substrate addition measured after 1 hrs by hotspot assay.

The target of assay [2] is T2, Histone-lysine N-methyltransferase, H3 lysine-36 specific (Homo sapiens, UniProt Q96L73). The assay is described as follows: Inhibition of N-terminal polyhistidine-tagged recombinant human NSD1 (1538 to 2696 residues) expressed in baculovirus infected insect cell using SAM as substrate preincubated for 20 mins followed by substrate addition measured after 1 hrs by hotspot assay.
T2 sequence (Q96L73 whole entry, the tested form may be a part): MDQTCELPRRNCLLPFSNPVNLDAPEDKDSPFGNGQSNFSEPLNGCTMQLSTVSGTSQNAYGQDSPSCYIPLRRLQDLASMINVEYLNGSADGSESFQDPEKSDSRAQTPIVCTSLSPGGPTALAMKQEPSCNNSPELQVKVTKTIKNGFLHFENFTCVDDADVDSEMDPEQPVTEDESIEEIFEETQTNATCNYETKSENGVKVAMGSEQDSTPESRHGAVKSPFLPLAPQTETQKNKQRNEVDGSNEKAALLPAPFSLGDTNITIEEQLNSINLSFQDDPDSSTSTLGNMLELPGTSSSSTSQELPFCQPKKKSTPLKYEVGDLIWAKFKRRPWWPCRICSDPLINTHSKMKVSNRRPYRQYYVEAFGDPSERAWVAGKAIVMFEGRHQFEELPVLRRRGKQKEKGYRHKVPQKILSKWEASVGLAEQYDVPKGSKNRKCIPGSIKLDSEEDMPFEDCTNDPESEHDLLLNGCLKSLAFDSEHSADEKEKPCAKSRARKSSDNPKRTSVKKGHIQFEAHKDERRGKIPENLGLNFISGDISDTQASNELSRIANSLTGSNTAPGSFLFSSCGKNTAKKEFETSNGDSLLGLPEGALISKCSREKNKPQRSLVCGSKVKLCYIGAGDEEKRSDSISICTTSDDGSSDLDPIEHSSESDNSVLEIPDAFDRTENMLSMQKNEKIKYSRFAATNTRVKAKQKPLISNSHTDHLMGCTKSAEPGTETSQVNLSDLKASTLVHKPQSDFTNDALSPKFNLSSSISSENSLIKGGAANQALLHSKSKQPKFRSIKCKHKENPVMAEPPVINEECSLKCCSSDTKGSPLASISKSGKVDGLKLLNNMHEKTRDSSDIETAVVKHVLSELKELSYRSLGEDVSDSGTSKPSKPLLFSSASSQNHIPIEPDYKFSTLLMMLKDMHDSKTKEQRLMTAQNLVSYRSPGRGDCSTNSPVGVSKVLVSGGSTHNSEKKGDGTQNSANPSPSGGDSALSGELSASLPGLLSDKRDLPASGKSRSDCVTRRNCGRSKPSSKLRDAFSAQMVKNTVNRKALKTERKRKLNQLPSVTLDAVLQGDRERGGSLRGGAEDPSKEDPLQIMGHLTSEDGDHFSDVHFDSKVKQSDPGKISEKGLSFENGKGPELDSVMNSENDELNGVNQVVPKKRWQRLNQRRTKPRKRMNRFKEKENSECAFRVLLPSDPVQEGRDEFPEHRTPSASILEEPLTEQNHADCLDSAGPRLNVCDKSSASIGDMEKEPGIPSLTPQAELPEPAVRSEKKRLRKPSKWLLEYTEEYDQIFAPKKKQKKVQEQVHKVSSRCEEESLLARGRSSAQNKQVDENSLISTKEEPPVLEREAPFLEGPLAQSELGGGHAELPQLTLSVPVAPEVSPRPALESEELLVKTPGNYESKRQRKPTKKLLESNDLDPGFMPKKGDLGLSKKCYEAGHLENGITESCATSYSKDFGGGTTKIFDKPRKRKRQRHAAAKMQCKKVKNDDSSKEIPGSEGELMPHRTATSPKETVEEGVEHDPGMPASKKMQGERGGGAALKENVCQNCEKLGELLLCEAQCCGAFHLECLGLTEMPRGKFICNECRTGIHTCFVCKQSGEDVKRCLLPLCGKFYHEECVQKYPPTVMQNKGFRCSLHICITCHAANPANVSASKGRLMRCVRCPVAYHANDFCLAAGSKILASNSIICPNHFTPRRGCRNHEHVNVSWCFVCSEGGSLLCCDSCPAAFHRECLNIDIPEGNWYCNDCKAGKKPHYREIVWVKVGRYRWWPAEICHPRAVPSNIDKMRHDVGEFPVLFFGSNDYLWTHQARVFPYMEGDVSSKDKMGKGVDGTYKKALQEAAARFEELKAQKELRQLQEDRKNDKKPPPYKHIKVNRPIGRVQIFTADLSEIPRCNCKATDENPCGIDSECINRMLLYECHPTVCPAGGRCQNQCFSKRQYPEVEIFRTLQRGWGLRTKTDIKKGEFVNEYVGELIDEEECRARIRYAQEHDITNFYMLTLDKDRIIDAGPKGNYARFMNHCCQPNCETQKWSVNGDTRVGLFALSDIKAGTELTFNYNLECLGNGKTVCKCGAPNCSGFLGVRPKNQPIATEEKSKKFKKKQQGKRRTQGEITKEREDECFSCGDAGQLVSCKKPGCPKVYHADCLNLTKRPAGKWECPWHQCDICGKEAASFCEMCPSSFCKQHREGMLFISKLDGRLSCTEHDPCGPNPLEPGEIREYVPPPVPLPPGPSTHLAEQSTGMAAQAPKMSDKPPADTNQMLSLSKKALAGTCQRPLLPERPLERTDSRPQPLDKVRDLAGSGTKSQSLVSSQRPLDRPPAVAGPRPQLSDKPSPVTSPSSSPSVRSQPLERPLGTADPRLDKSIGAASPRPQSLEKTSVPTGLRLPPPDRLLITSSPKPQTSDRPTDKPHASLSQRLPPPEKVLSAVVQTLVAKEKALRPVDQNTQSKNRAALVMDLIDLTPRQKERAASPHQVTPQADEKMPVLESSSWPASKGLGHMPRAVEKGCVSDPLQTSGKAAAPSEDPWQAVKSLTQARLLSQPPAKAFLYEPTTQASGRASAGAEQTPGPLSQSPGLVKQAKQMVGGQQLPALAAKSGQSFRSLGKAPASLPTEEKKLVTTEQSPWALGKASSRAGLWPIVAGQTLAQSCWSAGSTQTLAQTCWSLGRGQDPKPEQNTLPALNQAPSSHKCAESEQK

The subject of assay [3] is MOLM-13. The assay is described as follows: Antiproliferative activity against human MOLM-13 cells assessed as cell growth inhibition measured after 6 days in presence of JQ1 by RealTime-Glow MT cell viability assay. It counts as functional, cell-based. Conditions: MOLM-13, 144 h.
The nature of assay [4]: Antiproliferative activity against human RN 22 cells assessed as cell growth inhibition measured after 6 days by RealTime-Glow MT cell viability assay. Type of assay: functional, cell-based. Conditions: RN 22, 144 h.
Assay [5] has as its system MOLM-13. In words: Antiproliferative activity against human MOLM-13 cells assessed as cell growth inhibition measured after 6 days by RealTime-Glow MT cell viability assay. It counts as functional, cell-based. Conditions: MOLM-13, 144 h.
Assay [6] is described as follows: Inhibition of C-terminal NanoLuc-tagged human NSD3 PWWP1 domain/ C-terminal HaloTag fused histone H3 (unknown origin) interaction transfected in human U2OS cells. Type of assay: cell-based.
Assay [7] has as its system RS4-11. The assay is described as follows: Antiproliferative activity against human RS4-11 cells assessed as cell growth inhibition measured after 8 days. It counts as functional, cell-based. Conditions: RS4-11, 192 h.
The target of assay [8] is von Hippel-Lindau disease tumor suppressor/Histone-lysine N-methyltransferase NSD3 (Homo sapiens, UniProt P40337+Q9BZ95). In words: PROTAC activity at VHL/NSD3 […] domain in human MOLM-13 cells assessed as […] measured after 48 hrs by immunoblotting analysis. Type of assay: cell-based. Background: Immunoblotting shows a protein as a band on a membrane.
Chain of von Hippel-Lindau disease tumor suppressor/Histone-lysine N-methyltransferase NSD3 (P40337 whole entry, one chain of several): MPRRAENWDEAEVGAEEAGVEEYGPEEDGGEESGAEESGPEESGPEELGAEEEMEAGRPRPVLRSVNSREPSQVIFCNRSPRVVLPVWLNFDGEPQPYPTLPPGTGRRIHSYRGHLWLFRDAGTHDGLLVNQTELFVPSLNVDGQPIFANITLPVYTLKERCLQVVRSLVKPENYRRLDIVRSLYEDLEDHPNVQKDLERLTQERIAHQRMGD

In assay [9] the test system is EOL1. The assay is described as follows: Antiproliferative activity against human EOL1 cells assessed as cell growth inhibition measured after 8 days. Type of assay: functional, cell-based. Conditions: EOL1, 192 h.
The target of assay [10] is T1, Histone-lysine N-methyltransferase NSD3. In words: Binding affinity to human NSD3 […] domain (247 to 402 residues) expressed in Escherichia coli assessed as dissociation constant.
For assay [11], the system named is MM1.S. In words: Antiproliferative activity against human MM1.S cells assessed as cell growth inhibition measured after 8 days. Type of assay: functional, cell-based. Conditions: 192 h.
Assay [12] deals with T1, Histone-lysine N-methyltransferase NSD3. In words: Inhibition of NSD3 PWWP1 domain (unknown origin) assessed as […] by SPR analysis. A general note: In SPR one partner is held on a chip, and binding of the other changes the refractive index at the surface.
For assay [13] the target is unchanged. In words: Inhibition of NSD3 PWWP1 domain (unknown origin) by TR-FRET assay.
Assay [14] has as its target T3, Histone-lysine N-methyltransferase NSD2 (Homo sapiens, UniProt O96028).
T3 sequence (O96028 whole entry): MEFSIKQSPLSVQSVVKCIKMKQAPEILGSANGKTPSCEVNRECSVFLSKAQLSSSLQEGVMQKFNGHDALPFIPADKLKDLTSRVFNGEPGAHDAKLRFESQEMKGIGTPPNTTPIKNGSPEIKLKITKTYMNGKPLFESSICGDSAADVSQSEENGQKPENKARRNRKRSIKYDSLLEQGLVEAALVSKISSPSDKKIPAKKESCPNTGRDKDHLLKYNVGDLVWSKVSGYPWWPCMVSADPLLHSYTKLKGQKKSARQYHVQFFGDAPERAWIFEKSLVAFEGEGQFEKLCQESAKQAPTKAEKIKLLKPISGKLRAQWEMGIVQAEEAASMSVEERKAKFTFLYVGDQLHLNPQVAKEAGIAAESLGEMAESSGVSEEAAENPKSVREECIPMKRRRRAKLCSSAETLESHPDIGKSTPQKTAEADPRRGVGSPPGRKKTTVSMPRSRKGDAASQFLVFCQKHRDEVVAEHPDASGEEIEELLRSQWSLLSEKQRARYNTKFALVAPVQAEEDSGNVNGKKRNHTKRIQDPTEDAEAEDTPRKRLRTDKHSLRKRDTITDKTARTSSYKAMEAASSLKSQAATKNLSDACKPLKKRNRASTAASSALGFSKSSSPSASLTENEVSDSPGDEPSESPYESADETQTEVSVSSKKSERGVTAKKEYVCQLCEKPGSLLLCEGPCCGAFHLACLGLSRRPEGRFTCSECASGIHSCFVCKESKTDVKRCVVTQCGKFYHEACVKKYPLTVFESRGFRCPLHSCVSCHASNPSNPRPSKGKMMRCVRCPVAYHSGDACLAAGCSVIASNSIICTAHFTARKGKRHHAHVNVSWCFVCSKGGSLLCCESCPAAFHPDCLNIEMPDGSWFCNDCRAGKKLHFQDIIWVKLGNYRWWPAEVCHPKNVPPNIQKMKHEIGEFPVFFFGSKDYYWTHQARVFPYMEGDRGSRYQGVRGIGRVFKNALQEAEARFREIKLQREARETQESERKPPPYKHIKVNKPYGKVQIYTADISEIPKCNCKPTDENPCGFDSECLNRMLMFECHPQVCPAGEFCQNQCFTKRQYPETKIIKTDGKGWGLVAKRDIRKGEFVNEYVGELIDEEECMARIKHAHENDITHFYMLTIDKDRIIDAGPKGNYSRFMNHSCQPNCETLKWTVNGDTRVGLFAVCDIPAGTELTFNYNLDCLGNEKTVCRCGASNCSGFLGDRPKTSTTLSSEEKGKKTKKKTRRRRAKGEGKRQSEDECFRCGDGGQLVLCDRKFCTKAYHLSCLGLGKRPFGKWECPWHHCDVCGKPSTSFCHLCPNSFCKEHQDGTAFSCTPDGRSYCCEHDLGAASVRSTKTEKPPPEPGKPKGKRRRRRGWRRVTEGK
The assay is described as follows: Inhibition of N-terminal GST-tagged human NSD2 (941 to 1240 residues ) expressed in Escherichia coli using 3[H] SAM as substrate measured after 30 mins by biochemical assay.

Assay [15] addresses T1, Histone-lysine N-methyltransferase NSD3. The assay is described as follows: Inhibition of N-terminal His-TEV-tagged human NSD3 (1054 to 1285 residues ) expressed in Escherichia coli using 3[H] SAM as substrate measured after 30 mins by biochemical assay.
Assay [16] concerns the target T3, Histone-lysine N-methyltransferase NSD2. In words: Inhibition of human NSD2 overexpressed in Escherichia coli BL21(DE3) using nucleosome as substrate by SPA analysis.
Assay [17] has as its target T1, Histone-lysine N-methyltransferase NSD3. The assay is described as follows: Inhibition of human NSD3 overexpressed in Escherichia coli BL21(DE3) using nucleosome as substrate by SPA analysis.
For assay [18], the target named is T2, Histone-lysine N-methyltransferase, H3 lysine-36 specific. In words: Inhibition of human NSD1 overexpressed in Escherichia coli BL21(DE3) using nucleosome as substrate by SPA analysis.

Structures are written as SMILES. Starred links: 1 amine or outer side, 2 acyl side, 3 side chain; linkers in the order of their positions; H or OH if unused. Non-standard residues stand in square brackets, D forms with d. Residues, ends and D or L forms follow the SMILES beside them. X1 = CCC[C@H](C)[C@H](N[*:1])C(=O)[*:2]

What is called IC50 is the point on the concentration scale where inhibition reaches its midpoint. Consider `O=C1C(Cl)=C(NCCN2CCOCC2)C(=O)c2ncccc21`, for which the half-maximal inhibitory concentration (IC50) in [1] worked out at 0.26 µM; in assay [2] it was 0.11 µM.

In the case of `Cc1cc(CN)cc(C)c1-c1ncn(C)c1-c1ccnc2cc(F)ccc12`, the IC50 in assay [3] came out at 0.139 µM; in assay [4] it was 13 µM; in assay [5], 26.8 µM; in assay [6], 1.2 µM.

Broadly, the EC50 is the concentration that produces a half-maximal response. Usually Kd stands for the concentration at which binding is half-saturated. Consider `Cc1cc(CNCCCC(=O)NCCCCCCCCC(=O)N[C@H](C(=O)N2C[C@@H](O)C[C@@H]2C(=O)N[C@H](C)c2ccc(-c3scnc3C)cc2)C(C)(C)C)cc(C)c1-c1ncn(C)c1-c1ccnc2cc(F)ccc12`, for which the concentration giving a half-maximal response (EC50) in [7] is 3.5 µM; in assay [8], 4.9 µM; in [9], 2.3 µM; in assay [11], 3.3 µM. In addition, in [10], the equilibrium dissociation constant (Kd) was found to be 1.3 µM.

Turning to `Cc1noc(C)c1-c1ncn(C)c1-c1ccnc2cc(F)ccc12`, the Kd in [12] was determined as 6.8 µM. The compound further showed an IC50 in assay [13] of 1.9 µM.

For the compound `Cc1cc(CN)cc(C)c1-c1ncn(C)c1-c1ccncc1`, in [12], the Kd was found to be 9.7 µM. Moreover, in assay [13], the IC50 came out at 5.2 µM.

As to `CCC[C@H](C)[C@H](NC(=O)[C@@H](NC(=O)CNC(C)=O)C(C)C)C(=O)N[C@@H](CCCNC(=N)N)C(=O)N[C@H](C(N)=O)[C@@H](C)CC` (Ac-GV[X1]RI-NH2), the IC50 came to 22 µM in [14] and 3.2 µM in assay [15].

Regarding `CN1C(=O)[C@@]23C[C@]4([C@]56C[C@@]78SS[C@@](CO)(C(=O)N7[C@H]5Nc5ccccc56)N(C)C8=O)c5ccccc5N[C@@H]4N2C(=O)[C@]1(CO)SS3` [CHAETOCIN], the IC50 in assay [16] turned out to be 6 µM; in assay [17] it was 11 µM; in assay [18] it was 16 µM; in assay [1], 3.2 µM.

In the case of `Nc1ncnc2c1ncn2[C@@H]1O[C@H](C[C@@H](N)CC[C@H](N)C(=O)O)[C@@H](O)[C@H]1O` [SINEFUNGIN], the IC50 in [18] is 46 µM.

For `Cc1ccc(C(=O)Nc2ccc(S(=O)(=O)O)c3cc(S(=O)(=O)O)cc(S(=O)(=O)O)c23)cc1NC(=O)c1cccc(NC(=O)Nc2cccc(C(=O)Nc3cc(C(=O)Nc4ccc(S(=O)(=O)O)c5cc(S(=O)(=O)O)cc(S(=O)(=O)O)c45)ccc3C)c2)c1` [SURAMIN], the IC50 in assay [16] is 21 µM; in assay [17] it was 12 µM.
